Experimental data: patent publication US20230287003A1, “BCL6 INHIBITORS” (Cancer Research Technology Limited, priority 2018, published 2023)

Tests used:
[1] = molecular target: BCL6-NCOR2(SMRT) corepressor protein-protein interaction (Homo sapiens (Human), UniProt P41182); assay: NanoBRET cell assay; type: cell-based; conditions: for NanoBRET cell avg pIC50: HEK293T cells co-transfected with BCL6-nanoLuc and NCOR2-HaloTag, 6 hr incubation; for IC50: read-out: NanoBRET cell avg pIC50 (converted)
Excerpt: At 20 hr post-transfection, cells were collected, washed with PBS, and exchanged into media containing phenol red-free OptiMEM+4% FBS (Life Technology).

[2] = molecular target: human BCL6 BTB domain (Trx-6×His-BCL6) / BCOR-AF633 peptide (Homo sapiens (Human), UniProt P41182); assay: HTRF assay; type: binding; conditions: 1 nM Trx-6×His-BCL6, 300 nM BCOR-AF633 peptide, 2 hours incubation; for IC50: HTRF avg pIC50 (1 nM)
Protocol: The % inhibition at each concentration was calculated by normalising FRET ratio to the appropriate high (DMSO with all reagents) and low (DMSO without BCL6) controls.

Compound	NanoBRET cell avg pIC50 [1]	IC50 [2] [nM]	HTRF avg pIC50 (1 nM) [2]	IC50 [1] [nM]
Cn1c(=O)c2c(c3cc(Nc4nc(N5CC6CCC(C5)O6)ncc4Cl)ccc31)N[C@@H](C1CC1)C(F)(F)CO2 [Example 12u, (S)-10-((2-(8-oxa-3-azabicyclo[3.2.1]octan-3-yl)-5-chloropyrimidin-4-yl)amino)-2-cyclopropyl-3,3-difluoro-7-methyl-1,2,3,4-tetrahydro-[1,4]oxazepino[2,3-c]quinolin-6(7H)-one]	7.83	2.63		
Cn1c(=O)c2c(c3cc(Nc4nc(N5C6COCC5CC(O)C6)ncc4Cl)ccc31)N[C@@H](C1CC1)C(F)(F)CO2 (stereo partly drawn) [Example 11c, (S)-10-((5-chloro-2-((1R,5S,7R)-7-hydroxy-3-oxa-9-azabicyclo[3.3.1]-nonan-9-yl)pyrimidin-4-yl)amino)-2-cyclopropyl-3,3-difluoro-7-methyl-1,2,3,4-tetrahydro-[1,4]oxazepino[2,3-c]quinolin-6(7H)-one]	8.19		8.93	
CCC1CCOc2c(c3cc(Nc4ccnc(Cl)c4C#N)ccc3n(C)c2=O)N1 (centres unmarked) [Example 1c, 2-chloro-4-((2-ethyl-7-methyl-6-oxo-1,2,3,4,6,7-hexahydro-[1,4]oxazepino[2,3-c]quinolin-10-yl)amino)nicotinonitrile]			6.32	8710
Cn1c(=O)c2c(c3cc(Nc4nc(N5C6COCC5CC(O)C6)ncc4Cl)ccc31)NC(C1CC1)C(F)(F)CO2 [Example 11a, 10-((5-chloro-2-((1R,5S,7s)-7-hydroxy-3-oxa-9-azabicyclo[3.3.1]nonan-9-yl)pyrimidin-4-yl)amino)-2-cyclopropyl-3,3-difluoro-7-methyl-1,2,3,4-tetrahydro-[1,4]oxazepino[2,3-c]quinolin-6(7H)-one]			8.81	5.01
CN(C)C(=O)C1CCN(c2ncc(Cl)c(Nc3ccc4c(c3)c3c(c(=O)n4C)C(=O)OC[C@H](C4CC4)N3)n2)CC1 [Example 8m, (S)-1-(5-chloro-4-((2-cyclopropyl-7-methyl-5,6-dioxo-1,2,3,5,6,7-hexahydro-[1,4]oxazepino[6,5-c]quinolin-10-yl)amino)pyrimidin-2-yl)-N,N-dimethylpiperidine-4-carboxamide]			6.28	31600
Cn1c(=O)c2c(c3cc(Nc4nc(N5CC(F)(F)C[C@@H]5CO)ncc4Cl)ccc31)N[C@@H](C1CC1)C(F)(F)CO2 [Example 12x, (S)-10-((5-chloro-2-((R)-4,4-difluoro-2-(hydroxymethyl)pyrrolidin-1-yl)pyrimidin-4-yl)amino)-2-cyclopropyl-3,3-difluoro-7-methyl-1,2,3,4-tetrahydro-[1,4]oxazepino[2,3-c]quinolin-6(7H)-one]			8.20	145
(R)-10-((5-chloro-2-((3S,5R)-3-hydroxy-5- methylpiperidin-1-yl)pyrimidin-4-yl)amino)-2-cyclopropyl-7- methyl-1,2,3,4-tetrahydro-[1,4]oxazepino[2,3-c]quinolin-6(7H)-one or (R)-10-((5-chloro-2-((3R,5S)-3-hydroxy-5-methylpiperidin-1- yl)pyrimidin-4-yl)amino)-2-cyclopropyl-7-methyl-1,2,3,4-tetrahydro- [1,4]oxazepino[2,3-c]quinolin-6(7H)-one: formic acid (1:1) [Example 12d]	7.06		7.74	
Cn1c(=O)c2c(c3cc(Nc4nc(N5C6COCC5CC(O)C6)ncc4Cl)cnc31)N[C@@H](C1CC1)CCO2 (stereo partly drawn) [Example 11b, (R)-10-((5-chloro-2-((1R,5S,7S)-7-hydroxy-3-oxa-9-azabicyclo[3.3.1]nonan-9-yl)pyrimidin-4-yl)amino)-2-cyclopropyl-7-methyl-1,2,3,4-tetrahydro-[1,4]oxazepino[2,3-c][1,8]naphthyridin-6(7H)-one]			8.16	32.4
CC1Nc2c(c(=O)n(C)c3ccc(Nc4nc(N5C[C@H](C)C[C@H](C)C5)ncc4Cl)cc23)C(=O)OC1C (mixture of isomers) [Example 8p, rac-(2S,3R)-10-((5-chloro-2-((3S,5R)-3,5-dimethylpiperidin-1-yl)pyrimidin-4-yl)amino)-2,3,7-trimethyl-2,3-dihydro-[1,4]oxazepino[6,5-c]quinoline-5,6(1H,7H)-dione or rac-(2S,3S)-10-((5-chloro-2-((3S,5R)-3,5-dimethylpiperidin-1-yl)pyrimidin-4-yl)amino)-2,3,7-trimethyl-2,3-dihydro-[1,4]oxazepino[6,5-c]quinoline-5,6(1H,7H)-dione]		275		25700
C[C@H]1CCOc2c(c3cc(Nc4nc(-n5ccc(C(F)(F)F)n5)ncc4Cl)ccc3n(C)c2=O)N1 [Example 5c, (S)-10-((5-chloro-2-(3-(trifluoromethyl)-1H-pyrazol-1-yl)pyrimidin-4-yl)amino)-2,7-dimethyl-1,2,3,4-tetrahydro-[1,4]oxazepino[2,3-c]quinolin-6(7H)-one]			6.43	4680
COCC1(C)CCOc2c(c3cc(Nc4ccnc(Cl)c4C#N)ccc3n(C)c2=O)N1 (centres unmarked) [Example 1g, 2-chloro-4-((2-(methoxymethyl)-2,7-dimethyl-6-oxo-1,2,3,4,6,7-hexahydro-[1,4]oxazepino[2,3-c]quinolin-10-yl)amino)nicotinonitrile]			6.30	2510
Cn1c(=O)c2c(c3cc(Nc4nc(N5C6CCC5CS(=O)(=O)C6)ncc4Cl)ccc31)N[C@@H](C1CC1)C(F)(F)CO2 [Example 12w, (S)-10-((5-chloro-2-(3,3-dioxido-3-thia-8-azabicyclo[3.2.1]octan-8-yl)pyrimidin-4-yl)amino)-2-cyclopropyl-3,3-difluoro-7-methyl-1,2,3,4-tetrahydro-[1,4]oxazepino[2,3-c]quinolin-6(7H)-one]			8.73	11
Cn1c(=O)c2c(c3cc(Nc4ccnc(Cl)c4C#N)ccc31)NC(C)(C)CCO2 [Example 1f, 2-chloro-4-((2,2,7-trimethyl-6-oxo-1,2,3,4,6,7-hexahydro-[1,4]oxazepino[2,3-c]quinolin-10-yl)amino)nicotinonitrile]			6.24	5130
Cn1c(=O)c2c(c3cc(Nc4nc(N5CC6CCC(C5)O6)ncc4Cl)ccc31)N[C@@H](C1CC1)CCO2 [Example 12g, (R)-10-((2-(8-oxa-3-azabicyclo[3.2.1]octan-3-yl)-5-chloropyrimidin-4-yl)amino)-2-cyclopropyl-7-methyl-1,2,3,4-tetrahydro-[1,4]oxazepino[2,3-c]quinolin-6(7H)-one]			7.54	776
CN1CC2CCC(C1)N2c1ncc(Cl)c(Nc2ccc3c(c2)c2c(c(=O)n3C)OCC[C@H](C3CC3)N2)n1 [Example 12i, (R)-10-((5-chloro-2-(3-methyl-3,8-diazabicyclo[3.2.1]octan-8-yl)pyrimidin-4-yl)amino)-2-cyclopropyl-7-methyl-1,2,3,4-tetrahydro-[1,4]oxazepino[2,3-c]quinolin-6(7H)-one]			7.81	148
Cn1c(=O)c2c(c3cc(Nc4ccnc(Cl)c4C#N)ccc31)N[C@@H](C1CC1)C(F)(F)CO2 [Example 1v, (S)-2-chloro-4-((2-cyclopropyl-3,3-difluoro-7-methyl-6-oxo-1,2,3,4,6,7-hexahydro-[1,4]oxazepino[2,3-c]quinolin-10-yl)amino)nicotinonitrile]	7.83		8.58	
